Test results as given in patent US20040014648A1, “Methods for the prevention and/or the treatment of neurological disorders” (FAUST PHARMACEUTICALS, priority 2002, published 2004).

Legend:
[1] = system: primary cultures of neurons isolated from the rat brain cortex; test: Glutamate level determination (chemiluminescent enzymatic assay); assay type: cell-based; conditions: FIG. 5
Procedure: (§1) Primary cortical neuron cultures.
Assessment of glutamate release. Glutamate released by neurons in culture was evaluated in aliquots of the supernatants by means of a chemiluminescent enzymatic assay (Israel et al., Neurochem Int. 1993 Jan. 22(1):53-8).
The glutamate released by neurons was followed by an enzymatic assay coupled to a chemiluminescent reaction. […]

[2] = system: primary cultures of neurons, isolated from the rat brain cortex; test: Neuroprotection assay: Ionomycin-evoked neuron cell death (LDH release); assay type: cell-based; conditions: FIG. 4
Procedure: as §1
Assessment of neuron cell death.
The neurons were treated in vitro with 5 μM of Ionomycin (Sigma), a calcium ionophore, in presence of 10 μM of 1-Naphthol, in absence or in presence of 5 or 10 μM of 3-methylcholanthrene (3-MC, Aldrich), an UGT inducer which allows the in situ glucuronidation of 1-Naphthol.

[3] = system: primary cultures of neurons, isolated from the rat brain cortex; conditions: 3-NP 400 μM, 24 hours; compound at 0.1, 1 and 5 μM; FIG. 2

Cc1ccc2cc3c(ccc4ccccc43)c3c2c1CC3 [3-Methylcholanthrene, 3-methylcholanthrene, reference compound]
glutamate release by neurons ([1]; compound alone at 5 μM (lane 3)): have no effect on glutamate release
protective effect against the toxicity induced by Ionomycin ([2]; Ionomycin 5 μM, compound alone at 5 or 10 μM (lanes 5, 6)): no protective effect against the toxicity induced by Ionomycin
effect on the natural death of neurons ([2]; compound alone at 5 or 10 μM, no Ionomycin (lanes 2, 3)): no effect on the natural death of neurons

Oc1cccc2ccccc12 [1-Naphthol]
glutamate release by neurons ([1]; compound at 1 μM and 10 μM (lanes 4, 7)): at both concentrations reduces the release of glutamate
glutamate release with glucuronidation by 3-MC ([1]; compound at 10 μM plus 3-MC 1 or 5 μM): reinforces, dose dependently, the decrease of glutamate
glutamate release by neurons ([1]; compound at 10 μM): reduces glutamate release
significance of the improved decrease of glutamate with 3-Methylcholanthrene ([1]; compound at 1 or 10 μM plus 3-Methylcholanthrene 5 μM (lanes 6, 9)): statistically significant at the highest dose of 3-Methylcholanthrene
protective effect with in situ glucuronidation by 3-MC ([2]; Ionomycin 5 μM, compound at 10 μM plus 3-MC 5 or 10 μM): reinforces, dose dependently, the protective effect
protection of neurons from Ionomycin-evoked cell death ([2]; Ionomycin 5 μM, compound at 10 μM): protects neurons from Ionomycin-evoked cell death

CN1C(=O)CN=C(c2ccccc2)c2cc(Cl)ccc21 [Diazepam]
protection of neurons from 3-NP-evoked cell death [3]: protects neurons from 3-NP at all tested doses
